Experimental data: publication PMC9975698, “Hyperoside alleviates toxicity of β-amyloid via endoplasmic reticulum-mitochondrial calcium signal transduction cascade in APP/PS1 double transgenic Alzheimer's disease mice” (Redox Biology, 2023)

Legend:
Format in all cases: cell-based
HT22 cells [1] = assay: Annexin V-PI detection by flow cytometry; conditions: BAPTA/AM co-treatment, annexin V-PI staining
Description: Apoptosis was detected with Annexin V staining kit (BD Biosciences, CA, USA). […] The number of apoptotic cells was quantified by flow cytometry (BD FACSAria III, CA, USA). Data acquisition and analysis were performed with CellQuest (BD Biosciences) from three independent experiments.

HT22 cells [2] = assay: Cytoplasmic calcium dynamics (FLIPR Calcium 6); conditions: HT22 cells, TG or Aβ 30 μM
Description: Intracellular Ca^2+ dynamics were determined using the FLIPR Calcium 6 Assay Kit (Molecular Devices) according to the manufacturer's instructions. Briefly, HT22 was housed at 4 × 10^4 cells per well in a black-walled and clear-bottom 96 multi-well plate (Costar, MA, USA) and treated with Calcium 6 reagent for 1 h.

HT22 cells [3] = assay: Cytotoxicity (MTT) assay; conditions: aggregated Aβ 30 μM
Description: Cytotoxicity was assessed using the MTT (5.0 mg/mL) assay. 4 × 10^3 HT22 cells per well were seeded in 96-well plates. After overnight incubation, cells were treated with Aβ aggregates (30 μM) for 48 h with or without the presence of HYP (20–80 μM). Cells were treated with DMSO as a control. Subsequently, MTT (10 μL) was added to each well for 4 h, followed by the addition of 100 μL of lysis buffer (10% SDS in 0.01 mol/L hydrochloric acid) and overnight incubation. The absorbance was measured at 570 nm the next day. The formula was calculated as a percentage of cell viability: Cell viability (%) = A (treatded) / A (control) × 100%. Data were obtained from three independent experiments in triplicate.

HT22 cells [4] = assay: Fluo-3 detection of calcium ion concentration; conditions: after addition of Aβ
Description: 2 × 10^5 HT22 cells were incubated in 35 mm confocal dishes for 24 h at 37 °C in a CO^2 incubator. A 5 mM Fluo-3 AM stock solution was diluted with Hanks-Balanced Salt Solution (HBSS) to a 5 μM working solution and then added to the cells for 30 min at 37 °C. HT22 cells were washed three times with HEPES-buffered saline and then incubated in an imaging chamber at 37 °C for an additional 10 min. After the addition of 30 μM of Aβ aggregates in HBSS buffer, changes in cellular Ca^2+ levels were monitored by epifluorescence microscopy (Applied Precision DeltaVision Elite, Applied Precision, Inc., United States) using the real-time mode for tracking Fluo-3 changes for 5 min. The data inspection program provided by DeltaVision software was used to measure the intensity of Fluo-3 fluorescence.

HT22 cells [5] = assay: Mitochondrial membrane potential by JC-1; conditions: CCCP positive control
Description: The mitochondrial membrane potential of HT22 stained with 5,5′,6,6′-tetrachloro-1,1′,3,3′-tetraethylbenzimidazolyl cobalt iodide (JC-1) was observed by laser scanning confocal microscopy.

Molecule: CC(=O)OCOC(=O)CN(CC(=O)OCOC(C)=O)c1ccccc1OCCOc1ccccc1N(CC(=O)OCOC(C)=O)CC(=O)OCOC(C)=O [BAPTA/AM]
- percentage of Aβ-induced cell death (HT22 cells [1]): decrease the percentage of Aβ-induced cell death

Molecule: C/C=C(/C)C(=O)O[C@H]1C(C)=C2[C@H]([C@@H]1OC(=O)CCCCCCC)[C@@](C)(OC(C)=O)C[C@H](OC(=O)CCC)[C@@]1(O)[C@H]2OC(=O)[C@@]1(C)O [TG, Thapsigargin, reference compound]
- dynamic Ca2+ level, inducer alone (HT22 cells [2]): prompt increase in Ca^2+ level

Molecule: Aβ: Aβ (1–42) peptide incubated at 37 °C for 5 days to form Aβ aggregates [reference compound]
- cell death by aggregated Aβ alone (HT22 cells [3]): induced cell death in HT22
- Fluo-3 fluorescence intensity (Ca2+ level) (HT22 cells [4]): significant increase of fluorescence intensity

Molecule: Carbonyl cyanide m-chlorophenyl hydrazine [CCCP, reference compound]
- mitochondrial membrane potential (JC-1) (HT22 cells [5]): loss of membrane potential
